The record followed here is US6218379A, “Tricyclic carbacephems” (Hoffmann-la Roche Inc., priority 1996, dated 2001).

By MIC is commonly meant the smallest concentration in the dilution series that meets the test's criterion for growth inhibition.

Experiment [1] relates to Citrobacter freundii 1982. Kind of experiment: Antibacterial activity in vitro (MIC) against Citrobacter freundii 1982. It is filed as cell-based. The note with it: read-out: MIC C. freundii 1982. Here is the method:
(§1) The minimum inhibitory concentration in vitro (MIC in μg/ml) of a compound of formula I against Citrobacter freundii 1982 and Staphylococcus aureus 887 is measured and compiled in Table 2.

The subject of experiment [2] is Staphylococcus aureus 887. Nature of the experiment: Antibacterial activity in vitro (MIC) against Staphylococcus aureus 887. Type of experiment: cell-based. The note with it: read-out: MIC S. aureus 887. How it is done: as §1

≈ marks a conversion by molar mass, not a printed value. Counter-ions that a name gives are not always drawn.

As for `CC(=O)N1C[C@H]2CC(/C=C3\CCN(c4ccc[n+](CC(N)=O)c4)C3=O)=C(C(=O)[O-])N3C(=O)[C@@H]1[C@@H]23` [Example 40, (E)-(1aS,3aR,6bR)-2-Acetyl-5-[1-(1-carbamoylmethyl-pyridin-1-ium-3-yl)-2-oxo-pyrrolidin-3-ylidenemethyl]-1-oxo-1a,2,3,3a,4,6b-hexahydro-1H-2,6a-diaza-cyclobut[cd]indene-6-carboxylate], the MIC turned out to be 4 µg/mL (≈ 8.59 µM) in experiment [1] and 2 µg/mL (≈ 4.3 µM) in experiment [2].
For the compound `O=C(O)C1=C(/C=C/c2ccccc2)C[C@@H]2CN[C@@H]3C(=O)N1[C@H]23` [Example 49, (E)-(1aS,3aR,6bR)-1-Oxo-5-styryl-1a,2,3,3a,4,6b-hexahydro-1H-2,6a-diaza-cyclobut[cd]indene-6-carboxylic acid trifluoroacetate], the MIC in experiment [1] worked out at 64 µg/mL; in experiment [2], 8 µg/mL.
With `O=C(O)C1=C(/C=C/c2ccccn2)C[C@@H]2CN[C@@H]3C(=O)N1[C@H]23` [Example 50, (E)-(1aS,3aR,6bR)-1-Oxo-5-(2-pyridin-2-yl-vinyl)-1a,2,3,3a,4,6b-hexahydro-1H-2,6a-diaza-cyclobut[cd]indene-6-carboxylic acid trifluoroacetate (1:1.58)], the MIC in experiment [1] and in experiment [2] was 64 µg/mL throughout.
As to `O=C(O)C1=C(/C=C/c2ccncc2)C[C@@H]2CN[C@@H]3C(=O)N1[C@H]23` [Example 51, (E)-(1aS,3aR,6bR)-1-Oxo-5-(2-pyridin-4-yl-vinyl)-1a,2,3,3a,4,6b-hexahydro-1H-2,6a-diaza-cyclobut[cd]indene-6-carboxylic acid trifluoroacetate (1:1.45)], the MIC in experiment [1] is 64 µg/mL; in experiment [2], 4 µg/mL.
As for `O=C(O)C1=C(/C=C/c2ccc(O)cc2)C[C@@H]2CN[C@@H]3C(=O)N1[C@H]23` [Example 52, (E)-(1aS,3aR,6bR)-1-Oxo-5-[2-(4-hydroxy-phenyl)-vinyl]-1a,2,3,3a,4,6b-hexahydro-1H-2,6a-diaza-cyclobut[cd]indene-6-carboxylic acid trifluoroacetate (1:0.83)], the MIC in experiment [1] was 64 µg/mL; in experiment [2], 4 µg/mL.
For `O=C(O)C1=C(/C=C/c2cccnc2)C[C@@H]2CN[C@@H]3C(=O)N1[C@H]23` [Example 53, (E)-(1aS,3aR,6bR)-1-Oxo-5-(2-pyridin-3-yl-vinyl)-1a,2,3,3a,4,6b-hexahydro-1H-2,6a-diaza-cyclobut[cd]indene-6-carboxylic acid trifluoroacetate (1:1.5)], the MIC in experiment [1] is 64 µg/mL; in experiment [2], 2 µg/mL.
Consider `O=C(O)C1=C(/C=C/c2ccc3ccccc3n2)C[C@@H]2CN[C@@H]3C(=O)N1[C@H]23` [Example 54, (E)-(1aS,3aR,6bR)-1-Oxo-5-(2-quinolin-2-yl-vinyl)-1a,2,3,3a,4,6b-hexahydro-1H-2,6a-diaza-cyclobut[cd]indene-6-carboxylic acid trifluoroacetate (1:1.5)], for which the MIC in experiment [1] and in experiment [2] was 64 µg/mL each time.
Consider `O=C(O)C1=C(/C=C/c2cnc3ccccc3c2)C[C@@H]2CN[C@@H]3C(=O)N1[C@H]23` [Example 55, (E)-(1aS,3aR,6bR)-1-Oxo-5-(2-quinolin-3-yl-vinyl)-1a,2,3,3a,4,6b-hexahydro-1H-2,6a-diaza-cyclobut[cd]indene-6-carboxylic acid trifluoroacetate (1:1.4)], for which the MIC worked out at 64 µg/mL in experiment [1] and 4 µg/mL in experiment [2].
As to `O=CN1C[C@H]2CC(/C=C/c3ccccn3)=C(C(=O)O)N3C(=O)[C@@H]1[C@@H]23` [Example 56, (E)-(1aS,3aR,6bR)-2-Formyl-1-oxo-5-(2-pyridin-2-yl-vinyl)-1a,2,3,3a,4,6b-hexahydro-1H-2,6a-diaza-cyclobut[cd]indene-6-carboxylic acid sodium salt (1:1)], the results for the MIC in experiment [1] and in experiment [2] were 4 µg/mL and 1 µg/mL, respectively.
